From publication PMC7347136 (PLoS ONE, 2020)
“And” between values parts separate entries of the source, which are not always exact repeats. Identical values can stand only once. Like-named read-outs stand apart in the source and are kept apart here.

Columns and labels:
HEL [1] = experiment: Viacount viability assay by flow cytometry; assay type: cell-based, human; details: 6 h pulse, up to 2 μM, assessed at 48 h
Procedure: (§1) AML cells were seeded at 5 x 10^5 cells/ml in a 6-well plate and incubated with the test compound or vehicle control (DMSO) for 6, 8 or 10 h. At the end of the incubation period, cells were collected into Falcon tubes, pelleted via centrifugation (5 min at 478 x g), and medium containing compound was aspirated. The cells were resuspended in 4 ml of fresh compound-free medium and returned to the 6-well plates for further incubation. Following compound addition, 100 μl (at 24 h), 75 μl (at 48 h), 50 μl (at 72 h) or 30 μl (at 96 h) of a homogeneous suspension of cells were removed from the culture, made up to 100 μl with medium and mixed with 100 μl Guava Viacount reagent (Millipore, Nottingham, UK) in a 96-well plate. Samples were incubated for 20 min in the dark, mixed and then analyzed by GuavaSoft 2.6 software on the Guava Easycyte 8HT (Millipore). Guava Viacount software was used to gate and calculate the proportion of viable and dead cells in the population.

KG-1 [2] = experiment: Viacount viability assay by flow cytometry; assay type: cell-based, human; details: 6 h pulse, up to 2 μM, assessed at 48 h
Procedure: as §1

Kasumi-1 cells = experiment: Viacount viability assay by flow cytometry; assay type: cell-based, human; details: 6 h pulse, 0.5 or 1.0 μM, assessed at 24 h
Procedure: as §1

[3] = tested on: subcutaneous EOL-1 tumors; experiment: EOL-1 human eosinophilic leukemia xenograft model; assay type: in vivo, SCID mice; details: for tumor growth inhibition (TGI): Day 19; for median TGI: day 9
Procedure: Female athymic CB-17 SCID (Harlan Sprague-Dawley) mice between 6–7 weeks of age weighing approximately 22 grams were housed in a 12-h light-dark cycle at 70–74°F (21–23°C) and 40–60% humidity. Animals were fed water ad libitum (reverse osmosis, 2 ppm Cl2) and an irradiated standard rodent diet (Teklad 2919) consisting of 19% protein, 9% fat, and 4% fiber. Mice were injected subcutaneously into the right flank with 1x10^7 EOL-1 cells in 100 μl of a 1:1 HBSS:Matrigel solution. When tumors reached approximately 125–250 mm^3, animals were matched by tumor volume and then randomized into treatment and control groups before dosing was initiated. […] Cytarabine, also known as cytosine arabinoside (AraC), was administered by daily ip injection for 5 days only. Agent toxicity was assessed by effects on body weight and clinical signs. Animals were weighed twice weekly using a digital scale (Ohaus SP601). Beginning on Day 0, tumor dimensions were measured twice weekly by digital caliper (Fowler Ultra-Cal IV); tumor volume was calculated using the formula TV = width^2 x length x 0.52. […] Statistical differences in tumor volume were determined using a two-tailed One-Way Analysis of Variance (ANOVA) followed by the Dunnett’s multiple comparisons test comparing treated groups with control. For animal welfare the following methods were used: (a) methods of sacrifice: isoflurane anesthesia followed by cervical dislocation; (b) methods of anesthesia and/or analgesia: isoflurane anesthesia and (c) efforts to alleviate suffering: carprofen if animal veterinarian decides necessary or euthanasia.

PL21 = experiment: Resazurin reduction cell viability assay; assay type: cell-based, human
Procedure: (§2) Solid tumor cell lines were seeded in 100 μl medium into 96-well plates at an appropriate cell number determined by a cell dilution assay (Cal51–2000 cells/well; Colo205, MCF10A and 184A1–3000 cells/well and MDA-MB-468, HCC1954–4000 cells/well). AML suspension cells were seeded in 96-well plates at approximately 3000 cells per well. Cells were incubated overnight at 37°C, 5% CO2. The following day, 100 μl fresh medium containing increasing concentrations of appropriate compound was added and the cells were incubated for up to 72 h at 37°C, 5% CO2. For pulse treatment of solid (adherent) tumor cell lines, medium was aspirated and replaced with fresh drug-free medium. For pulse treatment of suspension lines, plates were centrifuged at 478 xg for 5 min at the end of the incubation period with compound, medium containing compound was carefully aspirated and replaced with fresh compound-free medium. A total of 72 h after the start of treatment, 20 μl of a 10X stock of resazurin sodium salt (Sigma-Aldrich, Dorset, UK) prepared in medium was added to the cells and incubated for up to 3 h. […] was measured on the Wallac Victor plate reader (Cambridge, UK) at 544–595 nm. IC50/70/90 calculations were determined in XLFit.

MDA-MB-231 = experiment: Resazurin reduction cell viability assay; assay type: cell-based, human
Procedure: as §2

HEL [4] = experiment: Resazurin reduction cell viability assay; assay type: cell-based, human
Procedure: as §2

KG-1 [5] = experiment: Resazurin reduction cell viability assay; assay type: cell-based, human
Procedure: as §2

A549 = experiment: Resazurin reduction cell viability assay; assay type: cell-based, human
Procedure: as §2

CDK2/cyclin A = molecular target: T1, CDK2/cyclin A (Homo sapiens, UniProt P24941); experiment: Carna IC50 determination; assay type: biochemical; details: around Km [ATP]
T1 construct: purchased Carna Biosciences
Procedure: (§3) IC50 values were determined from a 10-point concentration curve using ATP concentrations approximating Km values. […] The percentage inhibition of each test solution was calculated, which allowed the IC50 value to be determined from concentration versus percentage inhibition curves by fitting to a four parameter logistic curve.

CLK1 = molecular target: T2, CLK1 (Homo sapiens, UniProt P49759); experiment: Carna IC50 determination; assay type: biochemical; details: around Km [ATP]
T2 construct: purchased Carna Biosciences
Procedure: as §3

CDK5/p25 = molecular target: T3, CDK5/p25 (Homo sapiens, UniProt Q00535); experiment: Carna IC50 determination; assay type: biochemical; details: around Km [ATP]
T3 construct: purchased Carna Biosciences
Procedure: as §3

CLK2 = molecular target: T4, CLK2 (Homo sapiens, UniProt P49760); experiment: Carna IC50 determination; assay type: biochemical; details: around Km [ATP]
T4 construct: purchased Carna Biosciences
Procedure: as §3

CDK3/cyclin E1 = molecular target: T5, CDK3/cyclin E1 (Homo sapiens, UniProt Q00526); experiment: Carna IC50 determination; assay type: biochemical; details: around Km [ATP]
T5 construct: purchased Carna Biosciences
Procedure: as §3

CDK4/cyclin D3 = molecular target: T6, CDK4/cyclin D3 (Homo sapiens, UniProt P11802); experiment: Carna IC50 determination; assay type: biochemical; details: around Km [ATP]
T6 construct: made in house
Procedure: as §3

sensitive AML cell lines = experiment: Viacount viability assay by flow cytometry; assay type: cell-based; details: Homo sapiens, 6 h pulse, assessed at 48 h, read-out: non-viable cells
Procedure: as §1

[6] = 40 mg/kg oral qd x 5 for 2 weeks
[7] = 55 mg/kg oral qd x 5 for 2 weeks

T5 sequence (Q00526 whole entry): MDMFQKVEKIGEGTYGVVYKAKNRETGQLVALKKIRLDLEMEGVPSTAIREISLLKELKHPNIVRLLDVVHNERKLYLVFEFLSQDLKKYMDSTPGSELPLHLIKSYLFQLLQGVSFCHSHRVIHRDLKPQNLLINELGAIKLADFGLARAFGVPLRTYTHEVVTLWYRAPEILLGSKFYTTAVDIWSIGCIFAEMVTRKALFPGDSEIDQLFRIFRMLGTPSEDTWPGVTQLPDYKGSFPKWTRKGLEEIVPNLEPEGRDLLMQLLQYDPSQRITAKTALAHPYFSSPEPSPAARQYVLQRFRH
T5 sequence (P24864 whole entry partner): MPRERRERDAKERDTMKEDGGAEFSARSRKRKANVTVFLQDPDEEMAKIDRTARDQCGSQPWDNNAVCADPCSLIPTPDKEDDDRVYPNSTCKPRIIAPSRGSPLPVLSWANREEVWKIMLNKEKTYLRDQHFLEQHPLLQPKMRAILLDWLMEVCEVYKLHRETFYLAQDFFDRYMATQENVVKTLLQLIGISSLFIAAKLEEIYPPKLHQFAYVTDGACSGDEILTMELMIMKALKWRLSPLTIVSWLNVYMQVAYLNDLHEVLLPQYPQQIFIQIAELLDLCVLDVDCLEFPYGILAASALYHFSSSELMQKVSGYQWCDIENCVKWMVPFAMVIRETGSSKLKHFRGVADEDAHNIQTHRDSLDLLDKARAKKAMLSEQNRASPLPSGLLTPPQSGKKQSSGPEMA
T2 sequence (P49759 whole entry): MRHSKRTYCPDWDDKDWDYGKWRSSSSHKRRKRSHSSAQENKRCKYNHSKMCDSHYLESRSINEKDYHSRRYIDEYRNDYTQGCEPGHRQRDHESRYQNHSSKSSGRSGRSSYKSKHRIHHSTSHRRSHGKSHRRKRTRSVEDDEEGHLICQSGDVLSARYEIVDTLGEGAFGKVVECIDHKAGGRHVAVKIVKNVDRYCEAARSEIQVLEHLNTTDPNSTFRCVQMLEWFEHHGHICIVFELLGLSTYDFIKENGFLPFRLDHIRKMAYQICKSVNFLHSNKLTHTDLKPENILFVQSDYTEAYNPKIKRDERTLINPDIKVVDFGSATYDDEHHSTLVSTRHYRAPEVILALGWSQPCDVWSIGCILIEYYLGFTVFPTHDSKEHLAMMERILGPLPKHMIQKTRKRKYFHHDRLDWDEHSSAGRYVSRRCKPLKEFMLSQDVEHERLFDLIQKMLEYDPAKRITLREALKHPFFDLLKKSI
T4 sequence (P49760 whole entry): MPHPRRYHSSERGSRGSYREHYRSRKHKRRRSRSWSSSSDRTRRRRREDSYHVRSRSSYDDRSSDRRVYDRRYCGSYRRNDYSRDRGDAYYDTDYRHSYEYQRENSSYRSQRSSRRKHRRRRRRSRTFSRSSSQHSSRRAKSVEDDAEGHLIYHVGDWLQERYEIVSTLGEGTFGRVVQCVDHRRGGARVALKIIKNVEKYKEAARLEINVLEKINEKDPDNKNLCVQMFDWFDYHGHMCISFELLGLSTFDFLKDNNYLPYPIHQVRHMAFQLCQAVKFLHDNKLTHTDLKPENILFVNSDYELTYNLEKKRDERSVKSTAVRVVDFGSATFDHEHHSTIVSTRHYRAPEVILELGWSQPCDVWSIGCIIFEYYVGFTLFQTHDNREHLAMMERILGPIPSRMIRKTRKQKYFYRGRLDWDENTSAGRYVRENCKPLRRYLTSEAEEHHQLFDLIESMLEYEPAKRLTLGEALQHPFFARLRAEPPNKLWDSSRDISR
T3 sequence (Q00535 whole entry): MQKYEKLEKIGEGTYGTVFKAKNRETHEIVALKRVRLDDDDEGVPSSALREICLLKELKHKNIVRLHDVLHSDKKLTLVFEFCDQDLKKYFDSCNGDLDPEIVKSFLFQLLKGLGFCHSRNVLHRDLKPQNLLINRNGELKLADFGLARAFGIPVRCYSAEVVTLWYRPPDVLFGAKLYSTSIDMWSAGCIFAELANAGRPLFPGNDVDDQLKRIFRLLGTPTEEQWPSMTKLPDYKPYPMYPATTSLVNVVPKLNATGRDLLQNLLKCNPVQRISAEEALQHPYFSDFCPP
T3 sequence (Q15078 99-307 partner limits assumed): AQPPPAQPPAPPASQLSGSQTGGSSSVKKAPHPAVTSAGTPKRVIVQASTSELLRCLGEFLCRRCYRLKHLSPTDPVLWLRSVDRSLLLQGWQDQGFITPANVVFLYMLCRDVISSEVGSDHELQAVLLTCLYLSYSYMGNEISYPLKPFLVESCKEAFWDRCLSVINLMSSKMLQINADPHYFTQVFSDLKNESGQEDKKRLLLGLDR
T6 sequence (P11802 whole entry): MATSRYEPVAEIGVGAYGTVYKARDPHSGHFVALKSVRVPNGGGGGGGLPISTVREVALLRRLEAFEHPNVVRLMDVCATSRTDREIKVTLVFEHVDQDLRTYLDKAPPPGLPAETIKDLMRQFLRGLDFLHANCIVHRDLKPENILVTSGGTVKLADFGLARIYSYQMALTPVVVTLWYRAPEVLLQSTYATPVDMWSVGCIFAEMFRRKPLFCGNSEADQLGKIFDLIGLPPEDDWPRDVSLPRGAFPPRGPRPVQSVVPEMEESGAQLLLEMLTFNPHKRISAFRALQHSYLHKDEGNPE
T6 sequence (P30281 whole entry partner): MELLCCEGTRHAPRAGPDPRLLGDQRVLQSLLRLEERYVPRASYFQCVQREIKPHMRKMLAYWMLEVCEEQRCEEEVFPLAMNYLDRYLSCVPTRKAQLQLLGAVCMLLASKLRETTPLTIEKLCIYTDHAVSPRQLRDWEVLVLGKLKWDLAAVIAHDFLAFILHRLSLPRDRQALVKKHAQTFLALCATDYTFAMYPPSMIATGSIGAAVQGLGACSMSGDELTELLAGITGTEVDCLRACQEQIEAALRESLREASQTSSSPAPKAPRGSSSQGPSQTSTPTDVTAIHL

Structure (SMILES): CC[C@H](Nc1nc(NCc2cnc(C)cc2C)c2ncn(C(C)C)c2n1)[C@@H](C)O [Fadraciclib, 2-pentanol, 3-[[6-[[(4,6-dimethyl-3-pyridinyl)methyl]amino]-9-(1-methylethyl)-9Hpurin-2-yl]amino]-, (2R,3S)]
- apoptosis (non-viable cells) (HEL [1]): no appreciable increase in apoptosis
- apoptosis (non-viable cells) (KG-1 [2]): approximately 50%
- cells induced into apoptosis (dead cells) (Kasumi-1 cells): up to 80%
- tumor growth inhibition (TGI) [3, 6]: 97%
- median TGI [3, 6]: 95%
- transient body weight loss ([3]; 55 mg/kg oral): 2%
- tumor growth inhibition (TGI) [3, 7]: 100%
- median TGI [3, 7]: 97%
- IC50 (PL21; Homo sapiens, PL-21, 72 h, PL21, 72 h continuous, read-out: 72 h continuous IC50 ± SD): 340 ± 90 nM
- IC90 (PL21; Homo sapiens, PL-21, PL21, 6 h pulse then 66 h release): 9920 nM
- IC50 (PL21; Homo sapiens, PL-21, read-out: 6 h pulse IC50 ± SD, PL21, 6 h pulse then 66 h release): 2550 nM
- IC50 (PL21; read-out: 6 h pulse IC50 ± SD, PL21, 6 h pulse then 66 h release): 2540 ± 2710 nM
- sensitivity, 6 h pulse versus continuous 72 h (MDA-MB-231): sensitive to fadraciclib only after more prolonged treatment
- IC50 (HEL [4]; Homo sapiens, 72 h, 72 h continuous, read-out: 72 h continuous IC50 ± SD): 530 ± 200 nM
- IC50 (HEL [4]; Homo sapiens, read-out: 6 h pulse IC50 ± SD, HEL, 6 h pulse then 66 h release): 5120 nM
- IC50 (HEL [4]; read-out: 6 h pulse IC50 ± SD, 6 h pulse then 66 h release): 5110 ± 880 nM
- IC50 (KG-1 [5]; Homo sapiens, KG-1, 72 h, KG-1, 72 h continuous, read-out: 72 h continuous IC50 ± SD): 350 ± 30 nM
- IC50 (KG-1 [5]; Homo sapiens, KG-1, read-out: 6 h pulse IC50 ± SD, KG-1, 6 h pulse then 66 h release): 500 nM
- IC90 (KG-1 [5]; Homo sapiens, KG-1, 6 h pulse then 66 h release): 3700 nM
- IC50 (KG-1 [5]; read-out: 6 h pulse IC50 ± SD, KG-1, 6 h pulse then 66 h release): 470 ± 120 nM
- sensitivity, 6 h pulse versus continuous 72 h (A549): sensitive to fadraciclib only after more prolonged treatment
- IC50 (CDK2/cyclin A): 4.5 ± 0.4 nM
- IC50 (CLK1): 549 ± 81 nM
- IC50 (CDK5/p25): 20.5 ± 1 nM
- IC50 (CLK2): 252 ± 8 nM
- IC50 (CDK3/cyclin E1): 29 nM and 28.9 nM
- IC50 (CDK4/cyclin D3): 232 ± 27 nM
- cytotoxicity at 1 µM (sensitive AML cell lines): ~100%
